Assay results published in US20120329872A1, “Ready-To-Eat Feed For Domestic Pets” (Alzchem Trostberg GmbH, priority 2006, published 2012).

Experiments:
[1] = Stability in water (pH 7) heated in an autoclave to 160° C. for 30 minutes (model of feed extrusion); assay type: physicochemical
Experimental: For this purpose a model system was used for the extrusion of a moist feed paste at 160° C. […] Subsequently the content of creatine and guanidinoacetic acid was determined.

[2] = Storage stability in water at pH 5 over 60 days (comparable to canned feeds); assay type: physicochemical
[3] = 200 patients, 30 mg GAA/kg daily for one year, in combination with betaine; cited from earlier work
Staphylococcus aureus = conditions: bacterial infections (Staphylococcus aureus); cited from earlier work
[4] = dogs, oral, about 40 mg/kg daily for several weeks; cited from earlier work

Row | Structure (SMILES) | content remaining, of the original content ([1]; 0.5 h, pH 7) | degradation after storage ([2]; water pH 5, after 60 days) | storage stability compared with creatine (FIG. 2) ([2]; water pH 5, over 60 days) | side effects [3] | antibacterial action in animal experiments (Staphylococcus aureus) | content remaining, of the original content ([1]; water pH 7, 30 minutes at 160° C., autoclave) | content recovered after storage ([2]; water pH 5, after 60 days) [%] | body weight change [4] | nitrogen balance [4]
1 | N=C(N)NCC(=O)O [guanidinoacetic acid] | more than 80% | no degradation | significantly higher storage stability than creatine | not observed | successfully used against bacterial infections | – | – | – | –
2 | CN(CC(=O)O)C(=N)N [creatine, reference compound] | – | – | – | – | – | less than 20% | 87 | considerable increase in weight | positive nitrogen balance
